From the supplement of paper PMC4858399
Structures can show the parent of a compound that is named as a salt.

Experiments:
[1] = tested on: Caenorhabditis elegans N2; test: lowest effective concentration for larval growth inhibition (size below effect threshold); higher = less potent; settings: exposure time 48 h
Summary of the method: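 C. elegans N2 L1 larvae (50 per 96-well) were grown 48 h at 20°C in K-medium with killed bacteria, 1% DMSO and 0.5, 1, 5, 10, 50, 100 or 200 µM chemical. The Biosort measured per-worm extinction as size, and these were log-transformed into well means. The lowest effective concentration is the first dose where the plate-adjusted mean size drops under the 5.665 threshold and stays under it at higher doses.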

[2] = tested on: Caenorhabditis elegans N2; test: mean nematode size ln(EXT) after 48 h, plate-adjusted (DMSO control set to 6) (ln(EXT), control-adjusted); higher = larger nematodes / less growth inhibition; settings: exposure time 48 h
Summary of the method: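 Chemical at 0.5–200 µM was tested on synchronised C. elegans N2 L1 larvae grown for 48 h at 20°C in K-medium with killed OP50 and 1% DMSO. Per-worm Biosort extinction, cleared of debris by a growth model, was natural-logged and averaged per well to give mean size. Plates were normalised by subtracting the vehicle control mean and adding 6.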

Row | SMILES | lowest effective concentration [1] [µM] | mean nematode size ln(EXT) (ln) ([2]; 0.5 µM) | mean nematode size ln(EXT) (ln) ([2]; 1 µM) | mean nematode size ln(EXT) (ln) ([2]; 5 µM) | mean nematode size ln(EXT) (ln) ([2]; 10 µM) | mean nematode size ln(EXT) (ln) ([2]; 50 µM) | mean nematode size ln(EXT) (ln) ([2]; 100 µM) | mean nematode size ln(EXT) (ln) ([2]; 200 µM)
1 | O=C(O)C(Cl)Cl [Dichloroacetic acid] | > 200 | 5.56 | 5.97 | 6.02 | 5.89 | 5.98 | 5.92 | 5.7
2 | CCN(Cc1cccc(S(=O)(=O)O)c1)c1ccc(C(=C2C=CC(=[N+](CC)Cc3cccc(S(=O)(=O)O)c3)C=C2)c2ccccc2S(=O)(=O)[O-])cc1 [FD & C Blue no. 1] | > 200 | 5.85 | 5.87 | 5.91 | 5.88 | 5.89 | 5.92 | 5.89
3 | Cc1cc(Cl)ccc1OCC(=O)O [MCPA] | > 200 | 5.99 | 6.05 | 6.18 | 6.02 | 6.09 | 6.02 | 5.9
4 | Cc1ccc(S(=O)(=O)NC(=O)NN2CCCCCC2)cc1 [Tolazamide] | > 200 | 5.93 | 5.92 | 5.93 | 5.91 | 5.61 | 5.87 | 5.79
5 | C=CCOC(=O)C(C)(C)OC(=O)c1cc(-n2c(=O)cc(C(F)(F)F)n(C)c2=O)ccc1Cl [Butafenacil] | > 200 | 5.9 | 5.89 | 5.87 | 5.88 | 5.84 | 5.92 | 5.94
6 | COCCOCCOC [Bis(2-methoxyethyl) ether] | > 200 | 5.88 | 5.82 | 5.78 | 5.69 | 5.85 | 5.83 | 5.8
7 | O=C(O)c1cc(Oc2ccc(C(F)(F)F)cc2Cl)ccc1[N+](=O)[O-] [Acifluorfen] | > 200 | 5.84 | 5.92 | 5.76 | 6.05 | 6.01 | 6.24 | 5.94
8 | CC(C)=CCC/C(C)=C/CO [Geraniol] | > 200 | 5.92 | 5.94 | 5.89 | 6.03 | 5.99 | 6.04 | 5.72
9 | Nc1nc(=O)c2nc(CNc3ccc(C(=O)N[C@@H](CCC(=O)O)C(=O)O)cc3)cnc2[nH]1 [Folic acid] | > 200 | 6.04 | 5.96 | 5.91 | 6.04 | 6.02 | 6 | 5.82
10 | C[C@@H](Oc1ccc(CNC(=O)c2cccnc2Oc2ccc3c(c2)OCO3)c(F)c1)C(=O)O | > 200 | 5.79 | 5.84 | 5.86 | 5.84 | 5.92 | 5.86 | 5.72
11 | COc1ccc2sc(C(=O)Nc3nnn[nH]3)c(OC(C)C)c2c1 | > 200 | 5.89 | 5.99 | 5.89 | 6.11 | 5.82 | 5.86 | 6.09
12 | CCCOc1ccc(S(=O)(=O)N2CCN(CC)CC2)cc1-c1nc2c(CC)n(Cc3ccccn3)nc2c(=O)[nH]1 | > 200 | 5.7 | 6.03 | 5.83 | 5.88 | 5.91 | 5.88 | 5.69
13 | CCCCOCCO [2-Butoxyethanol] | > 200 | 5.93 | 5.98 | 5.92 | 6 | 6.01 | 5.84 | 5.81
14 | OCCN(CCO)CCO [Triethanolamine] | > 200 | 5.65 | 5.64 | 5.71 | 5.66 | 5.09 | 5.38 | 5.69
15 | CC(C)(O)c1ccc(CNC(=O)c2cccnc2Oc2ccc3nonc3c2)cc1 | > 200 | 5.94 | 5.81 | 5.9 | 5.71 | 5.92 | 5.81 | 5.8
16 | [As]#[In] [Indium arsenide] | > 200 | 5.78 | 5.76 | 5.77 | 5.75 | 5.54 | 5.53 | 5.86
17 | Cc1cccc([N+](=O)[O-])c1 [3-Nitrotoluene] | > 200 | 5.78 | 5.89 | 5.82 | 5.77 | 5.93 | 5.88 | 5.85
18 | CC(=O)Oc1ccccc1C(=O)O [Aspirin] | > 200 | 5.74 | 5.85 | 5.81 | 6.1 | 5.89 | 5.89 | 5.71
19 | CCNc1nc(Cl)nc(NCC)n1 [Simazine] | > 200 | 6.2 | 6.08 | 6.12 | 6.13 | 6.17 | 6.19 | 5.77
20 | CCn1nc(C)c2c1C(=O)NCC(c1ccc(O)cc1)=N2 | > 200 | 5.87 | 5.81 | 5.85 | 5.89 | 5.87 | 5.9 | 5.71
21 | COc1ccc(C)cc1N [p-Cresidine] | > 200 | 5.84 | 5.85 | 5.84 | 5.83 | 5.85 | 5.89 | 5.83
22 | Cn1c(=O)c2c(ncn2C)n(C)c1=O [Caffeine] | > 200 | 5.87 | 5.94 | 5.87 | 5.91 | 5.94 | 5.85 | 5.75
23 | N[C@@H](Cc1c[nH]c2ccccc12)C(=O)O [L-Tryptophan] | > 200 | 5.91 | 5.87 | 5.89 | 5.86 | 5.85 | 5.96 | 5.7
24 | CCN(CC)C(=O)c1cccc(C)c1 [Diethyltoluamide] | > 200 | 5.86 | 5.86 | 5.91 | 6.14 | 6 | 5.91 | 5.85
25 | CC(=O)OC[C@H]1O[C@@](COC(C)=O)(O[C@H]2O[C@H](COC(C)=O)[C@@H](OC(C)=O)[C@H](OC(C)=O)[C@H]2OC(C)=O)[C@@H](OC(C)=O)[C@@H]1OC(C)=O [Sucrose octaacetate] | > 200 | 5.78 | 5.75 | 5.76 | 5.75 | 5.72 | 5.75 | 5.73
26 | CN(C)C(=O)Nc1cccc(C(F)(F)F)c1 [Fluometuron] | > 200 | 6.02 | 6.11 | 6.08 | 6.02 | 5.87 | 6.07 | 5.78

Row | SMILES | lowest effective concentration [1] [µM] | mean nematode size ln(EXT) (ln) ([2]; 0.5 µM) | mean nematode size ln(EXT) (ln) ([2]; 1 µM) | mean nematode size ln(EXT) (ln) ([2]; 5 µM) | mean nematode size ln(EXT) (ln) ([2]; 10 µM) | mean nematode size ln(EXT) (ln) ([2]; 50 µM) | mean nematode size ln(EXT) (ln) ([2]; 100 µM) | mean nematode size ln(EXT) (ln) ([2]; 200 µM)
27 | COc1cc(-c2nc(NC(=O)c3cc4cc(C)cc(C)c4n3CC(=O)O)sc2CCC2CCCCC2)c(OC)cc1Cl | > 200 | 5.89 | 5.89 | 5.88 | 5.87 | 5.92 | 5.83 | 5.69
28 | COc1cc2c(c(OC)c1OC)-c1ccc(OC)c(=O)cc1[C@@H](NC(C)=O)CC2 [Colchicine] | > 200 | 5.82 | 5.93 | 5.87 | 5.95 | 5.92 | 5.89 | 5.7
29 | CCc1cc(C2=C(C(=O)O)N(c3ccccc3C(F)(F)F)S(=O)(=O)c3ccccc32)cc2c1OCO2 [Fandosentan potassium salt] | > 200 | 5.81 | 5.82 | 5.89 | 5.85 | 5.75 | 5.75 | 5.69
30 | OCC(CO)(CBr)CBr [2,2-Bis(bromomethyl)-1,3-propanediol] | 200 | 6.41 | 5.91 | 5.99 | 5.63 | 5.67 | 5.93 | 5.64
31 | Cc1ccc(S(=O)(=O)O)cc1C [Sodium xylenesulfonate] | > 200 | 5.89 | 5.95 | 5.92 | 5.82 | 5.89 | 5.8 | 5.72
32 | COc1cnc(OC)n2nc(NS(=O)(=O)c3c(OCC(F)F)cccc3C(F)(F)F)nc12 [Penoxsulam] | > 200 | 6.17 | 6.06 | 5.98 | 6.03 | 6.01 | 6.02 | 5.72
33 | CCN(C(=O)c1cc(C)cc(OC[C@H](C)Nc2ccncc2)c1)C(C)C | > 200 | 5.67 | 5.78 | 5.59 | 5.63 | 5.56 | 5.61 | 5.82
34 | O=C(O)C1=NN(c2ccc(S(=O)(=O)O)cc2)C(=O)C1N=Nc1ccc(S(=O)(=O)O)cc1 (stereo not drawn) [Tartrazine] | > 200 | 6.02 | 5.96 | 5.97 | 5.98 | 6.03 | 5.85 | 5.92
35 | O=C(O)CCCOc1ccc(Cl)cc1Cl [2,4-DB] | > 200 | 6.17 | 5.97 | 6.06 | 6.03 | 6.13 | 6.21 | 5.85
36 | CC(C)CC(C)O (stereo not drawn) [4-Methyl-2-pentanol] | > 200 | 6.05 | 5.96 | 6.02 | 5.89 | 5.97 | 5.96 | 5.79
37 | CCNc1ccccc1 [N-Ethyl aniline] | > 200 | 5.68 | 5.67 | 5.68 | 5.67 | 5.52 | 5.56 | 5.67
38 | Cc1nc(N(C)C)nc(OC(=O)N(C)C)c1C [Pirimicarb] | > 200 | 5.83 | 5.88 | 6.03 | 5.99 | 6.32 | 5.99 | 5.96
39 | OCCOCCO [Diethylene glycol] | > 200 | 5.91 | 5.95 | 5.92 | 5.86 | 5.92 | 5.78 | 5.69
40 | CN(C)c1ccccc1 [N,N-Dimethylaniline] | > 200 | 5.97 | 6.02 | 6.03 | 6.01 | 6.08 | 6.02 | 5.73
41 | CC[C@H]1OC(=O)[C@H](C)[C@@H](O[C@H]2C[C@@](C)(OC)[C@@H](O)[C@H](C)O2)[C@H](C)[C@@H](O[C@@H]2O[C@H](C)C[C@H](N(C)C)[C@H]2O)[C@](C)(O)C[C@@H](C)C(=O)[C@H](C)[C@@H](O)[C@]1(C)O [Erythromycin] | > 200 | 5.95 | 5.89 | 5.94 | 5.9 | 5.86 | 5.92 | 5.84
42 | CCCC(=O)OCCC(C)C [Isoamyl butyrate] | > 200 | 5.92 | 5.91 | 5.91 | 6.05 | 5.81 | 5.9 | 6.13
43 | COc1ccc([N+](=O)[O-])cc1N [2-methoxy-5-nitroaniline] | > 200 | 5.71 | 5.76 | 5.68 | 5.77 | 5.83 | 5.75 | 5.82
44 | Cc1ccc(N=C=O)cc1N=C=O [Toluene-2,4-diisocyanate] | > 200 | 5.73 | 5.8 | 5.73 | 5.78 | 5.7 | 5.61 | 5.67
45 | CCCC(CCC)C(=O)O [Valproic Acid] | > 200 | 5.81 | 5.92 | 6.12 | 6.03 | 6.06 | 6.03 | 5.91
46 | CCC12COCN1COC2 [5-Ethyl-1-aza-3,7-dioxabicyclo[3.3.0]octane] | > 200 | 5.73 | 6.05 | 6.06 | 5.92 | 5.96 | 5.94 | 5.78
47 | C=CN1CCCC1=O [N-Vinyl-2-pyrrolidone] | > 200 | 6.07 | 5.85 | 5.84 | 5.87 | 5.89 | 4.87 | 5.82
48 | NC(=O)N1c2ccccc2C=Cc2ccccc21 [Carbamazepine] | > 200 | 5.86 | 5.85 | 5.88 | 5.83 | 5.88 | 5.85 | 5.67
49 | CN(C)C=O [N,N-Dimethylformamide] | > 200 | 5.86 | 5.92 | 5.88 | 5.84 | 6.01 | 5.79 | 5.78
50 | CCc1cnc(C2=NC(C)(C(C)C)C(=O)N2)c(C(=O)O)c1 (stereo not drawn) [Imazethapyr] | > 200 | 5.99 | 5.93 | 6.06 | 6.15 | 6.12 | 6.24 | 6.05
51 | CO[C@@H]1COCC[C@@H]1N[C@@H]1CC[C@@](C(=O)N2CCc3ncc(C(F)(F)F)cc3C2)(C(C)C)C1 | > 200 | 5.89 | 5.88 | 5.95 | 5.95 | 5.93 | 5.86 | 5.84
